ChEMBL document CHEMBL1201862, “PubChem BioAssay data set” (2004)
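1) Cells in 96-well plates. 2) Compound, 48 h, 5 concentrations. 3) Linear interpolation between surrounding doses. 4) Unreached endpoint = highest concentration. GI50 is the concentration that inhibits growth by half.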 The source made the active and inactive calls. Rule as the data show it: active = GI50 up to about 1.1 µM and inactive = higher.

Key:
Experiment in all cases: NCI-60 cell line screen, 48 h
786-0 = system: 786-0
HCC 2998 = system: HCC 2998
SF-295 = system: SF-295
M14 = system: M14
MOLT-4 = system: MOLT-4
EKVX = system: EKVX
UO-31 = system: UO-31
A549 = system: A549
CAKI-1 = system: CAKI-1
Malme-3M = system: Malme-3M
OVCAR-8 = system: OVCAR-8
KM12 = system: KM12
HOP-62 = system: HOP-62
COLO 205 = system: COLO 205
LXFL 529 = system: LXFL 529
OVCAR-5 = system: OVCAR-5
IGROV-1 = system: IGROV-1
A498 = system: A498
SW-620 = system: SW-620
M19-MEL = system: M19-MEL
HCT-116 = system: HCT-116
SK-MEL-5 = system: SK-MEL-5
XF498 = system: XF498
NCI-H226 = system: NCI-H226
HCT-15 = system: HCT-15
SK-MEL-2 = system: SK-MEL-2
HOP-18 = system: HOP-18
RPMI-8226 = system: RPMI-8226
NCI-H460 = system: NCI-H460
NCI-H522 = system: NCI-H522
HT-29 = system: HT-29
SF-539 = system: SF-539
NCI-H23 = system: NCI-H23
U-251 = system: U-251
HOP-92 = system: HOP-92
DMS-114 = system: DMS-114
ACHN = system: ACHN
TK-10 = system: TK-10
UACC-62 = system: UACC-62
KM-20L2 = system: KM-20L2
OVCAR-4 = system: OVCAR-4
SK-MEL-28 = system: SK-MEL-28
SN12C = system: SN12C
SNB-19 = system: SNB-19
RXF 393 = system: RXF 393
SK-OV-3 = system: SK-OV-3
SNB-75 = system: SNB-75
SF-268 = system: SF-268
DLD-1 = system: DLD-1
LOX IMVI = system: LOX IMVI
K562 = system: K562
SNB-78 = system: SNB-78
DMS-273 = system: DMS-273
OVCAR-3 = system: OVCAR-3
HL-60 = system: HL-60
UACC-257 = system: UACC-257
NCI/ADR-RES = system: NCI/ADR-RES
MCF7 = system: MCF7
CCRF-CEM = system: CCRF-CEM

SMILES: CCCOCN1COCN/C1=N\C#N
- GI50 (786-0): 22 µM (inactive)
- GI50 (HCC 2998): > 100 µM (inactive)
- GI50 (SF-295): > 100 µM (inactive)
- GI50 (M14): > 100 µM (inactive)
- GI50 (MOLT-4): > 100 µM (inactive)
- GI50 (EKVX): > 100 µM (inactive)
- GI50 (UO-31): > 100 µM (inactive)
- GI50 (A549): 42.3 µM (inactive)
- GI50 (CAKI-1): > 100 µM (inactive)
- GI50 (Malme-3M): > 100 µM (inactive)
- GI50 (OVCAR-8): > 100 µM (inactive)
- GI50 (KM12): > 100 µM (inactive)
- GI50 (HOP-62): > 100 µM (inactive)
- GI50 (COLO 205): 17.9 µM (inactive)
- GI50 (LXFL 529): > 100 µM (inactive)
- GI50 (OVCAR-5): > 100 µM (inactive)
- GI50 (IGROV-1): > 100 µM (inactive)
- GI50 (A498): > 100 µM (inactive)
- GI50 (SW-620): 14 µM (inactive)
- GI50 (M19-MEL): 30.9 µM (inactive)
- GI50 (HCT-116): 84.1 µM (inactive)
- GI50 (SK-MEL-5): > 100 µM (inactive)
- GI50 (XF498): > 100 µM (inactive)
- GI50 (NCI-H226): > 100 µM (inactive)
- GI50 (HCT-15): 17.1 µM
- GI50 (SK-MEL-2): > 100 µM (inactive)
- GI50 (HOP-18): 32.8 µM (inactive)
- GI50 (RPMI-8226): 69.7 µM (inactive)
- GI50 (NCI-H460): > 100 µM (inactive)
- GI50 (NCI-H522): > 100 µM (inactive)
- GI50 (HT-29): 48.2 µM (inactive)
- GI50 (SF-539): > 100 µM (inactive)
- GI50 (NCI-H23): > 100 µM (inactive)
- GI50 (U-251): 21.6 µM (inactive)
- GI50 (HOP-92): > 100 µM (inactive)
- GI50 (DMS-114): 22 µM (inactive)
- GI50 (ACHN): 52.4 µM (inactive)
- GI50 (TK-10): > 100 µM (inactive)
- GI50 (UACC-62): > 100 µM (inactive)
- GI50 (KM-20L2): 36.2 µM (inactive)
- GI50 (OVCAR-4): 32.1 µM (inactive)
- GI50 (SK-MEL-28): > 100 µM (inactive)
- GI50 (SN12C): > 100 µM (inactive)
- GI50 (SNB-19): > 100 µM (inactive)
- GI50 (RXF 393): 15.3 µM (inactive)
- GI50 (SK-OV-3): > 100 µM (inactive)
- GI50 (SNB-75): > 100 µM (inactive)
- GI50 (SF-268): 39.1 µM (inactive)
- GI50 (DLD-1): 70.1 µM (inactive)
- GI50 (LOX IMVI): 24.5 µM (inactive)
- GI50 (K562): > 100 µM (inactive)
- GI50 (SNB-78): > 100 µM (inactive)
- GI50 (DMS-273): 18 µM (inactive)
- GI50 (OVCAR-3): > 100 µM (inactive)
- GI50 (HL-60): > 100 µM (inactive)
- GI50 (UACC-257): > 100 µM (inactive)

SMILES: CSc1nc2c(ncn2C2OC(CO)C(O)C(O)C2O)c(=O)[nH]1 (centres undefined)
- GI50 (HCC 2998): > 100 µM (inactive)
- GI50 (SF-295): 82.2 µM (inactive)
- GI50 (MOLT-4): > 100 µM (inactive)
- GI50 (EKVX): > 100 µM (inactive)
- GI50 (UO-31): > 100 µM (inactive)
- GI50 (A549): > 100 µM (inactive)
- GI50 (Malme-3M): > 100 µM (inactive)
- GI50 (OVCAR-8): > 100 µM (inactive)
- GI50 (KM12): > 100 µM (inactive)
- GI50 (HOP-62): > 92.5 µM (inactive)
- GI50 (COLO 205): > 100 µM (inactive)
- GI50 (OVCAR-5): > 100 µM (inactive)
- GI50 (NCI/ADR-RES): > 100 µM (inactive)
- GI50 (IGROV-1): > 100 µM (inactive)
- GI50 (A498): > 100 µM (inactive)
- GI50 (SW-620): > 100 µM (inactive)
- GI50 (M19-MEL): > 100 µM (inactive)
- GI50 (HCT-116): > 100 µM (inactive)
- GI50 (SK-MEL-5): > 100 µM (inactive)
- GI50 (XF498): > 100 µM (inactive)
- GI50 (NCI-H226): > 100 µM (inactive)
- GI50 (HCT-15): > 100 µM
- GI50 (SK-MEL-2): > 100 µM (inactive)
- GI50 (HOP-18): > 100 µM (inactive)
- GI50 (RPMI-8226): > 100 µM (inactive)
- GI50 (NCI-H460): > 100 µM (inactive)
- GI50 (NCI-H522): > 100 µM (inactive)
- GI50 (HT-29): > 100 µM (inactive)
- GI50 (SF-539): > 100 µM (inactive)
- GI50 (MCF7): > 100 µM (inactive)
- GI50 (NCI-H23): > 100 µM (inactive)
- GI50 (U-251): > 83.8 µM (inactive)
- GI50 (HOP-92): > 100 µM (inactive)
- GI50 (DMS-114): > 100 µM (inactive)
- GI50 (UACC-62): > 100 µM (inactive)
- GI50 (KM-20L2): > 100 µM (inactive)
- GI50 (OVCAR-4): > 100 µM (inactive)
- GI50 (SK-MEL-28): > 100 µM (inactive)
- GI50 (SN12C): > 100 µM (inactive)
- GI50 (SNB-19): > 100 µM (inactive)
- GI50 (RXF 393): > 100 µM (inactive)
- GI50 (SK-OV-3): > 100 µM (inactive)
- GI50 (SNB-75): > 100 µM (inactive)
- GI50 (CCRF-CEM): > 100 µM (inactive)
- GI50 (SF-268): > 100 µM (inactive)
- GI50 (DLD-1): > 100 µM (inactive)
- GI50 (LOX IMVI): > 100 µM (inactive)
- GI50 (K562): > 100 µM (inactive)
- GI50 (SNB-78): > 100 µM (inactive)
- GI50 (DMS-273): > 100 µM (inactive)
- GI50 (OVCAR-3): > 100 µM (inactive)
- GI50 (HL-60): > 100 µM (inactive)
- GI50 (UACC-257): > 100 µM (inactive)
